Drawing on publication PMC7065771, “Dietary supplementation of recombinant antimicrobial peptide Epinephelus lanceolatus piscidin improves growth performance and immune response in Gallus gallus domesticus” (PLoS ONE, 2020), this text covers zone of inhibition and MIC for four compounds.

The test system of experiment [1] is Pseudomonas aeruginosa (ATCC 19660). Kind of experiment: Inhibition zone (disk diffusion) assay. The class given is cell-based. Conditions: Pseudomonas aeruginosa, ATCC19660; disk paper on culture plate 16 h at 37°C; rEP: shake-flask supernatant 120 h after induction, maximum carrying capacity; ampicillin 2 mg/ml, 10 μl; read-out: Inhibition zone diameter. The procedure:
(§1) All assays were performed in triplicate.
(§2) The antimicrobial activity of rEP from flask cultures was evaluated by determining its ability to prevent growth of Gram-positive and Gram-negative bacteria with a disk diffusion assay. […] The most susceptible pathogens were R. anatipestifer (CFC27) and R. anatipestifer (CFC437) (Table 3a). Next, we investigated the thermostability of flask-fermented rEP with regard to its toxicity toward S. aureus (BCRC 10780), E. coli (BCRC 10675) and P. aeruginosa (ATCC 19660). Empty vector with no insert in P. pastoris was used as a control. Thermostability was measured by disk diffusion assay after cultures were incubated for 5 min at 40, 60, 80, or 100°C (Table 3b).

Experiment [2] concerns Escherichia coli (BCRC 10675). Kind of experiment: Inhibition zone (disk diffusion) assay. The class given is cell-based. Conditions: Escherichia coli, BCRC10675; disk paper on culture plate 16 h at 37°C; rEP: shake-flask supernatant 120 h after induction, maximum carrying capacity; ampicillin 2 mg/ml, 10 μl; read-out: Inhibition zone diameter. The method, then:
as §1, §2
A general note: A growth-free zone around the sample is the usual read-out of agar diffusion tests.

The subject of experiment [3] is Riemerella anatipestifer (RA9). Nature of the experiment: Inhibition zone (disk diffusion) assay. Conditions: disk paper on culture plate 16 h at 37°C, rEP: shake-flask supernatant 120 h after induction, maximum carrying capacity, ampicillin 2 mg/ml, 10 μl, read-out: Inhibition zone diameter. It counts as cell-based. The procedure: as §1, §2
In experiment [4] the test system is Riemerella anatipestifer (RA3). Kind of experiment: Inhibition zone (disk diffusion) assay. It counts as cell-based. Conditions: Riemerella anatipestifer; disk paper 16 h at 37°C; ampicillin 2 mg/ml, 10 μl; read-out: Inhibition zone diameter. The procedure:
as §1, §2

The subject of experiment [5] is Riemerella anatipestifer (CFC437). Kind of experiment: Inhibition zone (disk diffusion) assay. It counts as cell-based. Conditions: Riemerella anatipestifer; disk paper 16 h at 37°C; ampicillin 2 mg/ml, 10 μl; read-out: Inhibition zone diameter. The procedure:
as §1, §2

Experiment [6] concerns Riemerella anatipestifer (RA16). Nature of the experiment: Inhibition zone (disk diffusion) assay. It counts as cell-based. Conditions: disk paper on culture plate 16 h at 37°C, rEP: shake-flask supernatant 120 h after induction, maximum carrying capacity, ampicillin 2 mg/ml, 10 μl, read-out: Inhibition zone diameter. The procedure:
as §1, §2

Experiment [7] relates to Staphylococcus aureus (BCRC 10780). Kind of experiment: Inhibition zone (disk diffusion) assay. Conditions: Staphylococcus aureus, BCRC10780; disk paper on culture plate 16 h at 37°C; rEP: shake-flask supernatant 120 h after induction, maximum carrying capacity; ampicillin 2 mg/ml, 10 μl; read-out: Inhibition zone diameter. It counts as cell-based. The procedure:
as §1, §2

The test system of experiment [8] is Riemerella anatipestifer (CFC27). Kind of experiment: Inhibition zone (disk diffusion) assay. Conditions: Riemerella anatipestifer; disk paper 16 h at 37°C; ampicillin 2 mg/ml, 10 μl; read-out: Inhibition zone diameter. The class given is cell-based. The method, then:
as §1, §2

In experiment [9] the test system is Riemerella anatipestifer (CFC363). Nature of the experiment: Inhibition zone (disk diffusion) assay. It counts as cell-based. Conditions: disk paper on culture plate 16 h at 37°C, rEP: shake-flask supernatant 120 h after induction, maximum carrying capacity, ampicillin 2 mg/ml, 10 μl, read-out: Inhibition zone diameter. The procedure: as §1, §2
In experiment [10] the test system is Streptococcus equinus. The class given is cell-based. Conditions: 24 h. The procedure: as §1
In experiment [11] the test system is Staphylococcus aureus subsp. The class given is cell-based. Conditions: 24 h. The method, then:
as §1

Experiment [12] has as its system Klebsiella oxytoca. The class given is cell-based. Conditions: 24 h. The procedure: as §1
Experiment [13] concerns Escherichia coli. The class given is cell-based. Conditions: 24 h. The method, then:
as §1

The subject of experiment [14] is Streptococcus agalactiae. It counts as cell-based. Conditions: 24 h. The method, then: as §1
In experiment [15] the test system is MRSA. The class given is cell-based, Methicillin-resistant Staphylococcus aureus. Conditions: 24 h. The method, then:
as §1

Experiment [16] relates to Vibrio parahaemolyticus. Conditions: synthetic peptide, microbroth dilution series, Gram -. In general terms: Broth dilution looks for growth in wells or tubes with falling amounts of substance.
Experiment [17] has as its system Pseudomonas aeruginosa. The class given is cell-based. Conditions: 24 h. The method, then:
as §1

Regarding `CC1(C)S[C@@H]2[C@H](NC(=O)[C@H](N)c3ccccc3)C(=O)N2[C@H]1C(=O)O` [Ampicillin, reference compound], the zone of inhibition at 2000 µg/mL is 11.6 ± 0.5 mm in [1]; 13.6 ± 0.5 mm in experiment [2]; 31 ± 0.8 mm in experiment [3]; 12 ± 2.5 mm in [4]; 15 ± 4.5 mm in experiment [5]; 30 ± 1.2 mm in experiment [6]. The zone of inhibition at 2000 µg/mL in experiment [7] is 14.6 ± 0.5 mm; in experiment [8] it was 43 ± 1.1 mm; in experiment [9] it was 32 ± 2.3 mm.

For the compound “Ac-CFFRHIKSFWRGAKAIFRGARQGWRE-NH2 [G6497-t1]”, the MIC (in general, the lowest concentration that inhibits growth of the organism) was found to be 15 µg/mL in [10]; 60 µg/mL in experiment [11]; 30 µg/mL in experiment [12]; 30 µg/mL in experiment [13]; 60 µg/mL in experiment [14]; 60 µg/mL in [15]. The MIC in [16] came out at 60 µg/mL.

Take “Ac-CIMKHLRNLWNGAKAIYNGAKAGWTEFK-NH2 [G6496-t1]”: the MIC amounted to 30 µg/mL in [10]; 60 µg/mL in experiment [11]; 60 µg/mL in experiment [12]; 60 µg/mL in experiment [13]; 60 µg/mL in [14].

“Ac-GFIFHIIKGLFHAGRMIHGLVNRRRHRHGMEE-NH2 [G6498-t1]”: the MIC in experiment [10] was 11.2 µg/mL; in [11], 90 µg/mL; in experiment [12], 45 µg/mL; in experiment [17], 45 µg/mL; in experiment [13] it was 22.5 µg/mL; in [14] it was 90 µg/mL. Besides, the MIC in experiment [15] and in experiment [16] was 5.6 µg/mL each time.
